Experimental data reported in patent publication US20240100170A1, “CYCLIC-AMP RESPONSE ELEMENT BINDING PROTEIN (CBP) AND/OR ADENOVIRAL E1A BINDING PROTEIN OF 300 KDA (P300) DEGRADATION COMPOUNDS AND METHODS OF USE” (CULLGEN (SHANGHAI), INC., priority 2020, published 2024).

How the values were obtained:
[1] = tested on: LNCaP prostate cancer cell; assay: LNCaP cell viability (CellTiter-Glo); format: cell-based; conditions: Homo sapiens, 72 h, LNCaP cell viability, 3 days, CellTiter-Glo
How it was run: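 LNCaP cells (5000/well, RPMI 1640 + 10% FBS, 37 °C) treated with compounds in 12-point 3-fold serial dilution for three days. Viability read by CellTiter-Glo luminescence, normalized to untreated cells; IC50 from least-squares nonlinear regression.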

P300 = P300 (Homo sapiens, UniProt Q09472); assay: percentage of inhibition (degradation) of p300 at 10 nM, Tables 2-4; format: cell-based; parameters: LNCaP or 22RV1 cells that express CBP/P300 proteins were treated with GNE-781 or the bivalent compounds; endogenous in cells; host or cells: LNCaP or 22RV1 (not given); conditions: p300, 10 nM; for inhibition at 0.01 µM: Table 4, read-out: Degradation (10 nM); for Degradation (10 nM): Table 3
Sequence of P300 (Q09472 whole entry): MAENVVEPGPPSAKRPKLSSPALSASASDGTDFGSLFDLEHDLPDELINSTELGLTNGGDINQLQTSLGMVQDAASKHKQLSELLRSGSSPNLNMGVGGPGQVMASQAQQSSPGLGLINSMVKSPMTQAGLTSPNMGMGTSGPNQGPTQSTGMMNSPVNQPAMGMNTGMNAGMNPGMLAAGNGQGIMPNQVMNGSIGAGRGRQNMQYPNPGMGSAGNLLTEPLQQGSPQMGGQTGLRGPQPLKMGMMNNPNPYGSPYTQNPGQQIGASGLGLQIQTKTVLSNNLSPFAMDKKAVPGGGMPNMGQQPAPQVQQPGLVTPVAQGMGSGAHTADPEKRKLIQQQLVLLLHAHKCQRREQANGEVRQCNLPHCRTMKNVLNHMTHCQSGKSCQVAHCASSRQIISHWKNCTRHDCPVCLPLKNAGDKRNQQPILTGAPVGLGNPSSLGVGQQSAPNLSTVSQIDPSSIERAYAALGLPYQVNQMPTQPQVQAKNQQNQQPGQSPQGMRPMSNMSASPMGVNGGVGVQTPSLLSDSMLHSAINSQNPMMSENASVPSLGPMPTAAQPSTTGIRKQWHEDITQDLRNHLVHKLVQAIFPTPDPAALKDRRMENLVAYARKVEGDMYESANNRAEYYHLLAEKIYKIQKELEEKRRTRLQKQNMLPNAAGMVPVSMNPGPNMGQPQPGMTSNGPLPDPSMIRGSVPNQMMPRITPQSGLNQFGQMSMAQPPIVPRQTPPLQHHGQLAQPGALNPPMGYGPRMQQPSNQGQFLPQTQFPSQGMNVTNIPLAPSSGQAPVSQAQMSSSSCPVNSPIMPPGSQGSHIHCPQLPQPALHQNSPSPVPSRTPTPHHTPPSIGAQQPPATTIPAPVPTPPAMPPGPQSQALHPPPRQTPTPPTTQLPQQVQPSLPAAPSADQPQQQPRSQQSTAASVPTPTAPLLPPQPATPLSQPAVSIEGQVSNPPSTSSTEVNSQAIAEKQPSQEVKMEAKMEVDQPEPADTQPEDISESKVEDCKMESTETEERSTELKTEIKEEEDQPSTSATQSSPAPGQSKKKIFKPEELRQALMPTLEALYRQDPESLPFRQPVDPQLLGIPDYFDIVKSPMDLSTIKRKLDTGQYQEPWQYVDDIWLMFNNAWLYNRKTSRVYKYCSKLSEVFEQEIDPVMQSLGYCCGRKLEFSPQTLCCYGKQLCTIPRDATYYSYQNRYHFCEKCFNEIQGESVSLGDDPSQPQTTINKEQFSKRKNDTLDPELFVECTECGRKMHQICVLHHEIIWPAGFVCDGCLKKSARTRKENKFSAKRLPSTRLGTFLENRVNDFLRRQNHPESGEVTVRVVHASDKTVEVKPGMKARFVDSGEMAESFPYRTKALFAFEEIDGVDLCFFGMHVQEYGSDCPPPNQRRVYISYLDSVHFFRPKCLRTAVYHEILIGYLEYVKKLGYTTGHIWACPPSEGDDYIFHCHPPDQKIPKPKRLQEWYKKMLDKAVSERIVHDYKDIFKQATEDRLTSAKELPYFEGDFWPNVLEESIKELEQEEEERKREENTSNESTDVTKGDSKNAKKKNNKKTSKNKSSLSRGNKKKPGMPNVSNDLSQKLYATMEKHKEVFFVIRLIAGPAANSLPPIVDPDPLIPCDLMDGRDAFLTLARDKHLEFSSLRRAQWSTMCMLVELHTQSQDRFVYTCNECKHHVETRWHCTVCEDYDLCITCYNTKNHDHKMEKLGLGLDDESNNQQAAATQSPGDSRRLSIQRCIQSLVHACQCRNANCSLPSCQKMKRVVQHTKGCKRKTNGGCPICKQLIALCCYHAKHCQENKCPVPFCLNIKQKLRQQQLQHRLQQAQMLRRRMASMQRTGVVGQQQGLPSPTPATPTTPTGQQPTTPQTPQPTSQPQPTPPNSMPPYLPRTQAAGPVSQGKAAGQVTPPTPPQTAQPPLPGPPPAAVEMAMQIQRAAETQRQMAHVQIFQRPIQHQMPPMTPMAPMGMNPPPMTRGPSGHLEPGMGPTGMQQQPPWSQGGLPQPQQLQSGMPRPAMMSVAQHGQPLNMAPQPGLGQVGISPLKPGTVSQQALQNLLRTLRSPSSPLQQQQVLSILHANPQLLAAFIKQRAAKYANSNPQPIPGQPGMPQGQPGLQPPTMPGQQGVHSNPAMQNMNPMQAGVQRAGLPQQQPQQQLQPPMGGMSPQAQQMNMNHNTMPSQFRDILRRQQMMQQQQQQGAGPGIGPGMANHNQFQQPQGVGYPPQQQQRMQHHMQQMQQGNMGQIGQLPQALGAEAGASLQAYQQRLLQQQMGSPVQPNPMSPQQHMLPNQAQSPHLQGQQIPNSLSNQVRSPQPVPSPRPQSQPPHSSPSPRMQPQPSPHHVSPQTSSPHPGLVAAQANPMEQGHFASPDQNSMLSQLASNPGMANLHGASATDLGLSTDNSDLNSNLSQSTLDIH
How it was run: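 Degradation was measured at 10 nM. Cells or tissue were lysed in RIPA with protease and phosphatase inhibitors for 30 min at 4 °C and cleared, and protein was quantified by BCA. Lysates were resolved by SDS-PAGE, detected by chemiluminescent immunoblot, and bands were quantified by densitometry.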

IC50 ([1]; Table 4) [nM]	inhibition at 0.01 µM (P300) [%]	SMILES	IC50 ([1]; Table 3) [nM]	Degradation (10 nM) (P300)
298	20 to 50	CC(=O)N1CCc2c(c(N3CCCc4cc(-c5cnn(C)c5)c(C(F)F)cc43)nn2C2CCN(CCC3CCN(CCCc4cccc5c4C(=O)N(C4CCC(=O)NC4=O)C5=O)CC3)CC2)C1 (stereo not drawn) [P-246, 4-(3-(4-(2-(4-(5-acetyl-3-(7-(difluoromethyl)-6-(1-methyl-1H-pyrazol-4-yl)-3,4-dihydroquinolin-1(2H)-yl)-4,5,6,7-tetrahydro-1H-pyrazolo[4,3-c]pyridin-1-yl)piperidin-1-yl)ethyl)piperidin-1-yl)propyl)-2-(2,6-dioxopiperidin-3-yl)isoindoline-1,3-dione]		
		CC(=O)N1CCc2c(c(N3CCCc4cc(-c5cnn(C)c5)c(C(F)F)cc43)nn2C2CCN(C(=O)CCCCCCCn3c(=O)n(C4CCC(=O)NC4=O)c4ccccc43)CC2)C1 (stereo not drawn) [P-135, 3-(3-(8-(4-(5-acetyl-3-(7-(difluoromethyl)-6-(1-methyl-1H-pyrazol-4-yl)-3,4-dihydroquinolin-1(2H)-yl)-4,5,6,7-tetrahydro-1H-pyrazolo[4,3-c]pyridin-1-yl)piperidin-1-yl)-8-oxooctyl)-2-oxo-2,3-dihydro-1H-benzo[d]imidazol-1-yl)piperidine-2,6-dione]	0.7	A (A: Degradation ≥ 80%)
17.1	> 80	CC(=O)N1CCc2c(c(N3CCCc4cc(-c5cnn(C)c5)c(C(F)F)cc43)nn2C2CCN(C(=O)CCCN3CCC(CCc4cccc5c4n(C)c(=O)n5C4CCC(=O)NC4=O)CC3)CC2)C1 (stereo not drawn) [P-230, 3-(4-(2-(1-(4-(4-(5-Acetyl-3-(7-(difluoromethyl)-6-(1-methyl-1H-pyrazol-4-yl)-3,4-dihydroquinolin-1(2H)-yl)-4,5,6,7-tetrahydro-1H-pyrazolo[4,3-c]pyridin-1-yl)piperidin-1-yl)-4-oxobutyl)piperidin-4-yl)ethyl)-3-methyl-2-oxo-2,3-dihydro-1H-benzo[d]imidazol-1-yl)piperidine-2,6-dione]		
96.8	< 20	CC(=O)N1CCc2c(c(N3CCCc4cc(-c5cnn(C)c5)c(C(F)F)cc43)nn2C2CCN(C(=O)CCN3CCC(CNc4cccc5c4n(C)c(=O)n5C4CCC(=O)NC4=O)CC3)CC2)C1 (stereo not drawn) [P-213, 3-(4-(((1-(3-(4-(5-Acetyl-3-(7-(difluoromethyl)-6-(1-methyl-1H-pyrazol-4-yl)-3,4-dihydroquinolin-1(2H)-yl)-4,5,6,7-tetrahydro-1H-pyrazolo[4,3-c]pyridin-1-yl)piperidin-1-yl)-3-oxopropyl)piperidin-4-yl)methyl)amino)-3-methyl-2-oxo-2,3-dihydro-1H-benzo[d]imidazol-1-yl)piperidine-2,6-dione]		
1.4	> 80	CC(=O)N1CCc2c(c(N3CCCc4cc(-c5cnn(C)c5)c(C(F)F)cc43)nn2C2CCN(C(=O)CCCN3CCC(CCc4ccc5c(c4)n(C)c(=O)n5C4CCC(=O)NC4=O)CC3)CC2)C1 (stereo not drawn) [P-222, 3-(5-(2-(1-(4-(4-(5-acetyl-3-(7-(difluoromethyl)-6-(1-methyl-1H-pyrazol-4-yl)-3,4-dihydroquinolin-1(2H)-yl)-4,5,6,7-tetrahydro-1H-pyrazolo[4,3-c]pyridin-1-yl)piperidin-1-yl)-4-oxobutyl)piperidin-4-yl)ethyl)-3-methyl-2-oxo-2,3-dihydro-1H-benzo[d]imidazol-1-yl)piperidine-2,6-dione]		
		CNC(=O)N1CCc2c(c(N3CCCc4cc(-c5cnn(C)c5)c(C(F)F)cc43)nn2C2CCN(C(=O)CCCCCCn3c(=O)n(C4CCC(=O)NC4=O)c4ccccc43)CC2)C1 (stereo not drawn) [P-106, 3-(7-(difluoromethyl)-6-(1-methyl-1H-pyrazol-4-yl)-3,4-dihydroquinolin-1(2H)-yl)-1-(1-(7-(3-(2,6-dioxopiperidin-3-yl)-2-oxo-2,3-dihydro-1H-benzo[d]imidazol-1-yl)heptanoyl)piperidin-4-yl)-N-methyl-1,4,6,7-tetrahydro-5H-pyrazolo[4,3-c]pyridine-5-carboxamide]	24.2	B (B: 50% ≤ Degradation < 80%)
